According to US20240294498A1, “FACTOR XIIA INHIBITORS” (Lunac Therapeutics Ltd, priority 2021, published 2024):

Key:
Assay type in all cases: biochemical
[1] = biological target: T1, thrombin (Homo sapiens, UniProt P00734); assay: Determination of selectivity: thrombin inhibition (chromogenic substrate GPR); details: fold selectivity for FXIIa over thrombin (human); category
T1 construct: FXa (5 nM) and thrombin (5 nM)
Description: (§1) The activities of the compounds of the invention have been determined in vitro using the following assays protocols for the screening of activity of FXIIa and other proteases. Each of these assays were performed in a purified system employing the use of chromogenic assays in microplate plate wells. Chromogenic peptide substrates mimicking natural protein substrates are attached via an amide bond to a chromogenic group. Paranitroaniline (pNA) is released from the peptide following catalyses by the proteolytic enzyme; the absorbance increases and can be monitored at 405 nm.
(§2) All compounds were dissolved in 100% (v/v) DMSO to a stock concentration of 10 mM, the highest concentration of compound used in each assay is 500 μM. The final concentrations of DMSO were 5% (v/v) in 50 mM Tris 137 mM NaCl pH 7.4. Where no test compound was added a final concentration of 5% DMSO was employed.
(§3) To determine selectivity of test compounds, these test compounds were assayed for inhibitory activity against other serine proteases including FXa and thrombin. Essentially compounds at increasing concentrations were incubated with each enzyme: FXa (5 nM) and thrombin (5 nM), for 10 mins at 37° C. followed by the appropriate chromogenic substrate, S2765 (Chromogenix) and GPR (Bachem) respectively in 50 mM Tris, 137 mM NaCl, pH 7.4. Substrates were used at a concentration equal to the appropriate experimentally derived KM. Kinetic readings at 405 nm were monitored every 12 secs for a total duration of 3 hours at 37° C. Gradients of initial rates were determined and employed to calculate IC50 values. Values of IC50 were converted to Ki values based on the formula:
(§4) Ki═IC50/(1+[Substrate]/Km)
(§5) Where [Substrate] denotes the concentration of substrate used in the assay and Km is the determined value of each enzyme with its own substrate.
The fold selectivity for FXIIa over thrombin for the compounds of the invention has been categorised based on the fold selectivity values, the categories being “+”, “++” and “+++”. The category “+” refers to fold selectivity values less than 10 (e.g. a fold selectivity value of less than 10 and greater than 1). The category “++” refers to a fold selectivity value of 10 to 100. The category “+++” refers to fold selectivity values greater than 100.

[2] = biological target: FXa (Homo sapiens, UniProt P00742); assay: Determination of selectivity: FXa inhibition (chromogenic substrate S2765); details: fold selectivity for FXIIa over FXa (human); category
Description: as §1, §2, §3, §4, §5
The fold selectivity for FXIIa over FXa for the compounds of the invention has been categorised based on the fold selectivity values, the categories being “o”, “oo” and “ooo”. The category “o” refers to fold selectivity values less than 10 (e.g. a fold selectivity value of less than 10 and greater than 1). The category “oo” refers to a fold selectivity value of 10 to 100. The category “ooo” refers to fold selectivity values greater than 100.

[3] = biological target: T2, FXIIa (Homo sapiens, UniProt P00748); assay: Determination of Factor XIIa inhibition (chromogenic substrate S-2302); details: human FXIIa alpha, Ki category
T2 construct: FXIIa alpha
T2 sequence (P00748 373-615 limits assumed): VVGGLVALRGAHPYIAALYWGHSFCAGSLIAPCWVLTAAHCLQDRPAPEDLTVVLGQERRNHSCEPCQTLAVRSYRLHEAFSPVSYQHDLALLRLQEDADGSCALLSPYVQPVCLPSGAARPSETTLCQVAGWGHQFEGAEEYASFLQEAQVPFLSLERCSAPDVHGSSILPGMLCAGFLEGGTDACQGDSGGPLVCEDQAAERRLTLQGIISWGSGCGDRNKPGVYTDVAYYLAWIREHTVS
T2 sequence (P00748 20-372 partner limits assumed): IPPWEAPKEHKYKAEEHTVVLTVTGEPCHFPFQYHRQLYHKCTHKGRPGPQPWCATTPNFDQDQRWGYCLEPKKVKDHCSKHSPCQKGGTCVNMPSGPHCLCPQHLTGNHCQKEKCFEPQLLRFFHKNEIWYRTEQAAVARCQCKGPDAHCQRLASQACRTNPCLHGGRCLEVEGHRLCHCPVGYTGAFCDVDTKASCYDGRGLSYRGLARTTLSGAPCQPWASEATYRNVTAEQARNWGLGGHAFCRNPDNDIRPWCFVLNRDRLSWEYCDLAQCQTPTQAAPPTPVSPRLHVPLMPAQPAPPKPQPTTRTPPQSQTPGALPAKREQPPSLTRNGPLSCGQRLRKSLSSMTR
Description: as §1, §2
Factor XIIa activity was measured using a chromogenic substrate S-2302 (Chromogenix). Various concentrations of compound were incubated with 10 nM of FXIIa and incubated at 37° C. for 10 minutes in 50 mM Tris, 137 mM NaCl, pH 7.4, prior to the addition of the chromogenic substrate S-2302 at a concentration equal the to the experimentally derived KM. Kinetic readings at 405 nm were monitored every 12 secs for a total duration of 3 hours at 37° C. Gradients of initial rates were determined and employed to calculate IC50 values.
The activity of the compounds of the invention has been categorised based on the Ki values, the categories being “†”, “*”, “**” and “***”. […] The category “**” refers to compounds with a Ki value of 0.2 μM to 0.8 μM.
as §4, §5

Chain of FXa (P00742 235-488 limits assumed): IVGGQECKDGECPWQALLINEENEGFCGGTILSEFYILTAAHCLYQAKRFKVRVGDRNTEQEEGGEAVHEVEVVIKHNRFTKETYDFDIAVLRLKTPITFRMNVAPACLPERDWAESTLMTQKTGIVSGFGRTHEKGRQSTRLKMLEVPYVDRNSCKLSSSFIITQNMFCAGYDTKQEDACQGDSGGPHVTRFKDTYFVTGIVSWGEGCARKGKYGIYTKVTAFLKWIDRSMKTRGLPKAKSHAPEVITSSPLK
Chain of FXa (P00742 41-179 partner limits assumed): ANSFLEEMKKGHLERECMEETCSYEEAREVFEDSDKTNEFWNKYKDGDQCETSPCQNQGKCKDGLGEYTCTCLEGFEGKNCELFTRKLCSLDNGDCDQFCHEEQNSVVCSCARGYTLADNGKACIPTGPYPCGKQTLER

Compound: CO[C@H]1CCN(CCN(C)C(=O)[C@H]2CCCN[C@H]2C(=O)N2C[C@H](Cc3ccc(C)cc3)C[C@H]2C(=O)NCc2ccc3c(cnn3C)c2)C1 [Example M06128, (2R,3S)-N-(2-((S)-3-methoxypyrrolidin-1-yl)ethyl)-N-methyl-2-((2S,4R)-2-(((1-methyl-1H-indazol-5-yl)methyl)carbamoyl)-4-(4-methylbenzyl)pyrrolidine-1-carbonyl)piperidine-3-carboxamide]
- Thrombin (human)/FXIIa alpha (human) [1]: +++ (fold selectivity values greater than 100)
- FXa (human)/FXIIa alpha (human) [2]: ∘∘∘
- Ki [3]: < 200 nM

Compound: Cn1nnc2cc(CNC(=O)[C@@H]3C[C@@H](Cc4cccc5ccccc45)CN3C(=O)[C@@H]3NCCC[C@@H]3C(=O)N3CCCC3)ccc21 [Example M05877, (2S,4R)-N-((1-methyl-1H-benzo[d][1,2,3]triazol-5-yl)methyl)-4-(naphthalen-1-ylmethyl)-1-((2R,3S)-3-(pyrrolidine-1-carbonyl)piperidine-2-carbonyl)pyrrolidine-2-carboxamide]
- Thrombin (human)/FXIIa alpha (human) [1]: +++ (fold selectivity values greater than 100)
- FXa (human)/FXIIa alpha (human) [2]: ∘∘∘
- Ki [3]: < 200 nM

Compound: Cc1ccc(C[C@@H]2C[C@@H](C(=O)NCc3ccc4c(cnn4C)c3)N(C(=O)[C@@H]3NCCC[C@@H]3C(=O)N(C)C3CCN(CCF)CC3)C2)cc1 [Example M06083, (2R,3S)—N-[1-(2-fluoroethyl)-4-piperidyl]-N-methyl-2-[(2S,4R)-2-[(1-methylindazol-5-yl)methylcarbamoyl]-4-(p-tolylmethyl)pyrrolidine-1-carbonyl]piperidine-3-carboxamide]
- Thrombin (human)/FXIIa alpha (human) [1]: +++ (fold selectivity values greater than 100)
- FXa (human)/FXIIa alpha (human) [2]: ∘∘∘
- Ki [3]: < 200 nM

Compound: Cc1ccc(C[C@@H]2C[C@@H](C(=O)NCc3ccc4c(cnn4C)c3)N(C(=O)[C@@H]3NCCC[C@@H]3C(=O)N3CCCN(C)CC3)C2)cc1 [Example M05840, (2S,4R)-1-((2R,3S)-3-(4-methyl-1,4-diazepane-1-carbonyl)piperidine-2-carbonyl)-N-((1-methyl-1H-indazol-5-yl)methyl)-4-(4-methylbenzyl)pyrrolidine-2-carboxamide]
- Thrombin (human)/FXIIa alpha (human) [1]: +++ (fold selectivity values greater than 100)
- FXa (human)/FXIIa alpha (human) [2]: ∘∘∘
- Ki [3]: < 200 nM

Compound: Cn1nnc2cc(CNC(=O)[C@@H]3C[C@@H](Cc4ccc(C(F)(F)F)nc4)CN3C(=O)[C@@H]3NCCC[C@@H]3C(=O)N3CCCC3)ccc21 [Example M05863, (2S,4R)-N-((1-methyl-1H-benzo[d][1,2,3]triazol-5-yl)methyl)-1-((2R,3S)-3-(pyrrolidine-1-carbonyl)piperidine-2-carbonyl)-4-((6-(trifluoromethyl)pyridin-3-yl)methyl)pyrrolidine-2-carboxamide]
- Thrombin (human)/FXIIa alpha (human) [1]: +++ (fold selectivity values greater than 100)
- FXa (human)/FXIIa alpha (human) [2]: ∘∘∘
- Ki [3]: < 200 nM

Compound: CN(CCN1CCCC1)C(=O)[C@H]1CCCN[C@H]1C(=O)N1C[C@@H](C(F)(F)F)C[C@H]1C(=O)NCc1ccc2c(cnn2C)c1 [Example M06085, (2R,3S)-N-methyl-2-((2S,4S)-2-(((1-methyl-1H-indazol-5-yl)methyl)carbamoyl)-4-(trifluoromethyl)pyrrolidine-1-carbonyl)-N-(2-(pyrrolidin-1-yl)ethyl)piperidine-3-carboxamide]
- Thrombin (human)/FXIIa alpha (human) [1]: +++ (fold selectivity values greater than 100)
- FXa (human)/FXIIa alpha (human) [2]: ∘∘∘
- Ki [3]: < 200 nM

Compound: Cc1ccc(C[C@@H]2C[C@@H](C(=O)NCCCn3ccnc3)N(C(=O)[C@@H]3NCCC[C@@H]3C(=O)N3CCC[C@@H]3C(F)(F)F)C2)cc1 [Example M06089]
- Thrombin (human)/FXIIa alpha (human) [1]: +++ (fold selectivity values greater than 100)
- FXa (human)/FXIIa alpha (human) [2]: ∘∘∘
- Ki [3]: 200 to 800 nM

Compound: COc1ccc(C[C@@H]2C[C@@H](C(=O)NCc3cc4cnccc4[nH]3)N(C(=O)[C@@H]3NCCC[C@@H]3C(=O)N3CCCC3)C2)cc1 [Example M00466, (2S,4R)-N-((1H-pyrrolo[3,2-c]pyridin-2-yl)methyl)-4-(4-mthoxybenzyl)-1-((2R,3S)-3-(pyrrolidine-1-carbonyl)piperidine-2-carbonyl)pyrrolidine-2-carboxamide]
- Thrombin (human)/FXIIa alpha (human) [1]: +++ (fold selectivity values greater than 100)
- FXa (human)/FXIIa alpha (human) [2]: ∘∘∘
- Ki [3]: < 200 nM

Compound: Cn1ncc2cc(CNC(=O)[C@@H]3C[C@@H](Cc4cc(C5CC5)on4)CN3C(=O)[C@@H]3NCCC[C@@H]3C(=O)N3CCC[C@@H]3C(F)(F)F)ccc21 [Example M06047, (2S,4S)-4-+(5-cyclopropylisoxazol-3-yl)methyl+-N-+(1-methylindazol-5-yl)methyl+-1-+(2R,3S)-3-+(2R)-2-(trifluoromethyl)pyrrolidine-1-carbonyl+piperidine-2-carbonyl+pyrrolidine-2-carboxamide]
- Thrombin (human)/FXIIa alpha (human) [1]: +++ (fold selectivity values greater than 100)
- FXa (human)/FXIIa alpha (human) [2]: ∘∘∘
- Ki [3]: < 200 nM

Compound: Cn1nnc2cc(CNC(=O)[C@@H]3C[C@@H](CC4=CCC5(CC4)CC5)CN3C(=O)[C@@H]3NCCC[C@@H]3C(=O)N3CCCC3)ccc21 [Example M05991]
- Thrombin (human)/FXIIa alpha (human) [1]: +++ (fold selectivity values greater than 100)
- FXa (human)/FXIIa alpha (human) [2]: ∘∘∘
- Ki [3]: < 200 nM

Compound: Cc1ccc(C[C@@H]2C[C@@H](C(=O)NCc3ccc4c(cnn4C)c3)N(C(=O)[C@@H]3NCCC[C@@H]3C(=O)N3C4CCC3CC4)C2)cc1 [Example M05804, (2S,4R)-1-((2R,3S)-3-(7-azabicyclo[2.2.1]heptane-7-carbonyl)piperidine-2-carbonyl)-N-((1-methyl-1H-indazol-5-yl)methyl)-4-(4-methylbenzyl)pyrrolidine-2-carboxamide]
- Thrombin (human)/FXIIa alpha (human) [1]: +++ (fold selectivity values greater than 100)
- FXa (human)/FXIIa alpha (human) [2]: ∘∘∘
- Ki [3]: 200 to 800 nM

Compound: Cn1ncc2cc(CNC(=O)[C@@H]3C[C@@H](Cc4ccc(OC(F)F)cc4)CN3C(=O)[C@@H]3NCCC[C@@H]3C(=O)N3CCCC3)ccc21 [Example M06021]
- Thrombin (human)/FXIIa alpha (human) [1]: +++ (fold selectivity values greater than 100)
- FXa (human)/FXIIa alpha (human) [2]: ∘∘∘
- Ki [3]: 200 to 800 nM

Compound: COc1ccc(C[C@@H]2C[C@@H](C(=O)NCc3ccc4c(cnn4C)c3)N(C(=O)[C@@H]3NCCC[C@@H]3C(=O)N3CCCC3)C2)cn1 [Example M05875, (2S,4R)-4-((6-methoxypyridin-3-yl)methyl)-N-((1-methyl-1H-indazol-5-yl)methyl)-1-((2R,3S)-3-(pyrrolidine-1-carbonyl)piperidine-2-carbonyl)pyrrolidine-2-carboxamide]
- Thrombin (human)/FXIIa alpha (human) [1]: +++ (fold selectivity values greater than 100)
- FXa (human)/FXIIa alpha (human) [2]: ∘∘∘
- Ki [3]: 200 to 800 nM
